“Also recorded” adds a separate entry of the source.
Columns and labels:
[1] = system: human oligodendrocytes precursor cells (hOPC); assay: Microarray gene expression analysis of LDN treated hOPC; format: cell-based; conditions: 125 nM, 35 days
Experimental: LDN (125 nM) was supplemented to human oligodendrocytes precursor cells (hOPC) for 35 days. Microarray analysis was performed on duplicate of LDN treated and Non-treated (NT) hOPC.

[2] = system: glial progenitor cells derived from human ES cells (Olig2 positive cells); assay: hOPC differentiation assay, Olig2 positive cells (immunostaining, high content screening); format: cell-based
Experimental: In order to initiate differentiation 20,000 GPCs were seeded in each well of Matrigel coated plates of 96 wells, or on PolyD-Lysine/laminin (PDL/lam)-coated 96 well plates. Cells were grown in GM media for two to three days. Then GM was replaced by differentiation medium without growth factors, (DMEM/F12, 1% B27, 0.5% N2, Vitamin C (Sigma, 50 ug/ml). Differentiation medium was supplemented with the following tested compounds: […] All media were replaced every other day. The oligodendrocyte lineage cells were characterized by the expression of a transcription factor olig2. The rabbit polyclonal AB anti olig2 (Millipore cat AB9610) was added to PFA fixed cells. […] The fixed cells were washed three times in blocking solution, olig2 diluted 1/500, in blocking solution, was added for 1 hour. The fixed cells were washed with PBS 3 times and goat anti rabbit Alexa Fluor 568 1/500 in PBS was added for 45 minutes. The fixed cells were washed three times. ArrayScan VTI HCS reader system (Cellomis, Thermo-scientific) was used for scanning at least 20 fields for each tested well under 10× objective in both assays (differentiation and myelination). Cellomics Neural profiling bio-application was used for processing and analyzing the images. For differentiation assay, the following parameters were tested: number and percentage of O4+ cells, number of processes, processes length and number of branching points. For myelination assay, the same morphological parameters were tested and in addition: areas of myelinated axons in pixels (MBP&NF overlap area) and Number of myelinated regions (MBP&NF overlap count) were also analyzed. Modifications in the Neuro-profiling bio-application were conducted for this specific purpose. T-test analysis was used to compare between treatments. The 4-parameter Hill-Slope curve fittings were generated by GraphPad Prism software using least squares fitting method and EC50 values were calculated. […] The cells at passage five were cultured for three days with GM on 96 well plates and after fixation, cells were reacted with anti-olig2 Ab, and olig2 positive cells and nuclei were scanned in the Thermo Scientific™ ArrayScan™ XTI High Content Analysis (HCA) Reader and counted with the neural profiling program. On the other hand the cells surface antigens O4 and PDGFRa were detected on dissociated cells after fixation and reaction with O4 Ab conjugated to APC, anti PDGFRa PE, as well as A2B5 PE all obtained from BD. Flow cytometry was conducted in BD FACS Canto II. […] Time points used for analysis are 21, 28, 35 and 42 days of differentiation, for each time point 20 fields were analyzed. […] In this experiment, cells at passage 4 were pretreated in differentiation medium with Noggin for 14 days, and split before seeding on 96 well plates.

EC50 ([2]; 21 days, differentiation medium without noggin, with or without PDGF (20 ng/ml), read-out: EC50 (percentage of olig2 positive cells)): ~30 nM
SMILES: c1ccc2c(-c3cnn4cc(-c5ccc(N6CCNCC6)cc5)cnc34)ccnc2c1 [LDN-193189]
LDN expression value: ADAMTS5, cluster 16924620 [1]: 4.59
LDN expression value: AN04, cluster 16755712 [1]: 3.1
LDN expression value: ARHGAP28, cluster 16850724 [1]: 3.09
LDN expression value: ASPN, cluster 17095887 [1]: 9.23
LDN expression value: ATP8B1, cluster 16855510 [1]: 3.98
LDN expression value: BCAS1, cluster 16920475 [1]: 6.52
LDN expression value: BMP8B, cluster 16685729 [1]: 4.53
LDN expression value: C1QTNF9B-AS1, cluster 16773183 [1]: 3.69
LDN expression value: CACNG5, cluster 16837160 [1]: 5.71
LDN expression value: CATSPER2P1, cluster 16808340 [1]: 5.12
LDN expression value: CGB2, cluster 16863963 [1]: 4.05
LDN expression value: CKMT1A, cluster 16800268 [1]: 4.08
LDN expression value: CLDN25, cluster 16731401 [1]: 4.26
LDN expression value: CLVS2, cluster 17012223 [1]: 4.53
LDN expression value: COL12A1, cluster 17020846 [1]: 8.23
LDN expression value: CYTL1, cluster 16973934 [1]: 5.81
LDN expression value: DLX2, cluster 16905108 [1]: 6.25
LDN expression value: DLX6-AS1, cluster 17060039 [1]: 5.13
LDN expression value: EFTUD1P1, cluster 16804141 [1]: 3.87
LDN expression value: FLJ16124, cluster 16880774 [1]: 3.13
LDN expression value: GABRQ, cluster 17107855 [1]: 6.76
LDN expression value: GAD2, cluster 16703382 [1]: 3.71
LDN expression value: GFRA1, cluster 16718670 [1]: 7.52
LDN expression value: GJB2, cluster 16777185 [1]: 4.88
LDN expression value: GPR126, cluster 17013126 [1]: 5.42
LDN expression value: GRIK1, cluster 16924761 [1]: 7.51
LDN expression value: GSX2, cluster 16966801 [1]: 4.62
LDN expression value: HCG24, cluster 17028423 [1]: 2.38
LDN expression value: ID1, cluster 16912362 [1]: 4.47
LDN expression value: ID3, cluster 16683377 [1]: 5.5
LDN expression value: IGLV3-9, cluster 16927827 [1]: 5.34
LDN expression value: IL17RB, cluster 16941871 [1]: 4.55
LDN expression value: INSM1, cluster 16911917 [1]: 6.13
LDN expression value: KIAA1199, cluster 16803754 [1]: 4.07
LDN expression value: LOC284632, cluster 16660753 [1]: 3.33
LDN expression value: LOC100286922, cluster 16909695 [1]: 3.3
LDN expression value: LPAR3, cluster 16688992 [1]: 5.8
LDN expression value: LRRC7, cluster 16665976 [1]: 3.48
LDN expression value: LRRTM1, cluster 16899533 [1]: 3.97
LDN expression value: MIR1226, cluster 16940440 [1]: 4.98
LDN expression value: MIR1321, cluster 17105179 [1]: 3.47
LDN expression value: MIR3160-1, cluster 16724356 [1]: 4.18
LDN expression value: MSLNL, cluster 16822561 [1]: 5.67
LDN expression value: NUDT9P1, cluster 16716499 [1]: 3.56
LDN expression value: OR2V1, cluster 17004061 [1]: 3.13
LDN expression value: OTTHUMG00000156244, cluster 17056553 [1]: 4.16
LDN expression value: OTTHUMG00000176466, cluster 16826102 [1]: 5.02
LDN expression value: PAPPA2, cluster 16674151 [1]: 4.24
LDN expression value: PDE5A, cluster 16979339 [1]: 4.13
LDN expression value: PPP1R17, cluster 17044956 [1]: 5.13
LDN expression value: RNA5SP482, cluster 16912470 [1]: 2.92
LDN expression value: SCARNA1, cluster 16661495 [1]: 2.28
LDN expression value: SCGN, cluster 17005473 [1]: 6.7
LDN expression value: SERPINA3, cluster 16787902 [1]: 5.07
LDN expression value: SLC1A2, cluster 16737325 [1]: 6.08
LDN expression value: SLC1A4, cluster 16880712 [1]: 8.96
LDN expression value: SLC1A5, cluster 16873632 [1]: 6.29
LDN expression value: SNORA70B, cluster 16898108 [1]: 2.38
LDN expression value: SNORD1B, cluster 16838101 [1]: 3.01
LDN expression value: SNORD37, cluster 16867229 [1]: 3.63
LDN expression value: SNORD88B, cluster 16874641 [1]: 5.05
LDN expression value: SOX10, cluster 16934881 [1]: 6.63
LDN expression value: SP8, cluster 17055689 [1]: 4.65
LDN expression value: ST18, cluster 17077073 [1]: 2.85
LDN expression value: TEX35, cluster 16674240 [1]: 3.05
LDN expression value: TNFAIP6, cluster 16886491 [1]: 5.47
LDN expression value: TNR, cluster 16696624 [1]: 8.09
LDN expression value: TRAJ46, cluster 16782032 [1]: 3.99
LDN expression value: TRIM65, cluster 16848961 [1]: 5.41
LDN expression value: TTK, cluster 17010552 [1]: 5.68
LDN expression value: UGT8, cluster 16970001 [1]: 8.99
LDN expression value: WIF1, cluster 16767081 [1]: 5.73
LDN expression value: ZIC2, cluster 16776103 [1]: 4.76
LDN expression value: cluster 16662690 [1]: 3.02
LDN expression value: cluster 16689704 [1]: 2.34
LDN expression value: cluster 16697040 [1]: 3.18
LDN expression value: cluster 16697217 [1]: 3.02
LDN expression value: cluster 16703561 [1]: 5.3
LDN expression value: cluster 16707466 [1]: 3.92
LDN expression value: cluster 16740950 [1]: 5.53
LDN expression value: cluster 16742286 [1]: 4.35
LDN expression value: cluster 16758848 [1]: 4.29
LDN expression value: cluster 16766940 [1]: 6.76
LDN expression value: cluster 16781352 [1]: 4.74
LDN expression value: cluster 16797929 [1]: 5.86
LDN expression value: cluster 16834632 [1]: 3.21
LDN expression value: cluster 16846798 [1]: 5.15
LDN expression value: cluster 16906256 [1]: 3.32
LDN expression value: cluster 16926511 [1]: 5.66
LDN expression value: cluster 16928859 [1]: 2.2
LDN expression value: cluster 16985206 [1]: 3.41
LDN expression value: cluster 16997369 [1]: 4.3
LDN expression value: cluster 17012233 [1]: 3.53
LDN expression value: cluster 17042403 [1]: 7.47
LDN expression value: cluster 17056789 [1]: 6.64
LDN expression value: cluster 17063571 [1]: 2.81
LDN expression value: cluster 17112263 [1]: 2.9
LDN expression value: cluster 17117590 [1]: 5.68
LDN expression value: cluster 17118266 [1]: 2.43
LDN expression value: cluster 17118303 [1]: 3.61
LDN expression value: cluster 17124590 [1]: 2.62
Olig2+ cells number / differentiation (summary statement) [2]: increased the number of O4+ and Olig2+ cells; also recorded: stimulates the formation of olig2 positive cells
number / percentage of Olig2+ cells (hOPC commitment) ([2]; day 21, Noggin 50 ng/ml + PDGF 20 ng/ml, Dorsomorphin 2 μM, LDN-193189 125 nM): increased the number of Olig2+
conversion of neural stem cells to Olig2 positive cells ([2]; days 21, 28, 35, 42, noggin 100 ng/ml, LDN-193189 62.5 nM and 125 nM): stimulate the conversion of neural stem cells to Olig2 positive cells
